The test system of one data set is non-traumatised rats. Description: ICP, MABP and CPP in anaesthetised non-traumatised rats. The data set is classed as in vivo, rat. As to conditions: i.v. 0.5 mg/kg/min during 10 minutes, followed by 0.1 mg/kg/min during 50 min. Here is the method: The effect of Compound 2, Compound 1 and Racemate (comp. 1 and comp. 2) on ICP, MABP and CPP was tested in anaesthetised non-traumatised rats. The compounds were administered i.v. and the same dose was given as in traumatized rats (0.5 mg/kg/min during 10 minutes, followed by 0.1 mg/kg/min during 50 min).

The subject of the next data set is rat brain. The experiment in a line: Near-infrared spectroscopy (NIRS) of the rat brain: brain hemoglobin concentration and oxygenation after moderate head injury. The data set is classed as in vivo. As to conditions: 24 h after moderate head injury; i.v. 0.5 mg/kg.min 10 min then 0.1 mg/kg.min 45 min. From the text: Near-infrared spectroscopy (NIRS) of the rat brain ‘in vivo’ allows to quantify non-invasively saturation of brain haemoglobin with oxygen (HbSat) and total brain haemoglobin concentration ([HbTot]). The latter is a measure for cerebral blood volume (CBV). Changes in the redox state of the mitochondrial enzyme cytochrome oxidase (CytOx), an indicator for tissue oxygenation, can also be monitored.
HbSat is not affected by compound 1 and the racemate (Comp. 1 and Comp. 2).

Data set [1] deals with Sprague-Dawley rats. Description: Changes in relevant physiological variables during treatment after severe CHI in rats. The data set is classed as in vivo, rat. As to conditions: median average change over entire treatment period, % change of initial value; 0.5 mg/kg/min 10 min then 0.1 mg/kg/min 50 min, started 20 min after severe CHI; n = 10. From the text:
(§1) A clinically relevant rat model for traumatic brain injury was used to test the compounds according to the invention. This model mimics several clinical features of traumatic brain injury, such as increased ICP, decreased cerebral perfusion pressure, morphologic alterations including diffuse axonal injury, neuronal necrosis and contusion, impairment of autoregulation of cerebral blood flow and reduction of brain oxygenation and was applied for screening drugs with ICP-lowering effects. Trauma was induced in intubated, isoflurane anesthetized (1.5% isoflurane in a mixture of 30% O2 and 70% N2O) Sprague-Dawley rats (380-400 g) stereotaxically positioned on a table mounted on 4 springs. A 400 g steel cylinder, protected with a 9 mm diameter silicon disc, was dropped on the unprotected skull from a height of either 70 cm or 50 cm (respectively ‘severe’ and ‘moderate’ head injury). The impact area was centered between bregma and lamda. ICP was recorded using a Codman microsensor probe inserted in the parietal cortex. In both severe and moderate head injuries the ICP increased immediately after trauma and remained elevated for several days. The severe head injury mode was used for the evaluation of pharmacological effects immediately after trauma (screening procedure). When survival and recovery from anesthesia was envisaged, the moderate head injury mode was applied. In pharmacological studies, animals with a pathological ICP between 12.5 and 35 mm Hg were included. The changes in ICP, mean arterial blood pressure (MABP) and cerebral perfusion pressure CPP (=[…]) were expressed as percentage of the initial value at onset of the treatment. Screening procedure: On a weekly base, 4 treated groups of 3 rats were compared with 3 saline treated animals. Since conventional statistical methods require a larger amount of animals, a sequential procedure was used. Sequential methods operate in different stages. At each stage, a group of animals was selected as homogeneous as possible. Animals were randomly allocated to either drugs or saline. The procedure allowed to make the decision of rejecting the drug, accepting the drug as active or to continue with a new group of animals in a next stage. Given the biological relevant level of activity that must be detected, the expected fraction of false positive and negative results was known and fixed. A sequential two-sample grouped rank test was used. […] Despite the variability in the individual data, the procedure consistently accepted reference treatments such as mannitol as active, while controls were rejected.
Treatment was started at 20 min after severe head injury and involved administering a dose of 0.5 mg/kg/min during 10 minutes, followed by 0.1 mg/kg/min during 50 min.

The test system of data set [2] is Sprague-Dawley rats. The experiment in a line: Influence of anaesthesia on effects on ICP and MABP 24 h after moderate trauma. The data set is classed as in vivo, rat. As to conditions: i.v. infusion 0.1 mg/kg.min 30 min, medians, n=6.
Source text: as §1
The effects of treatment with Compound 2 (i.v. infusion at a dose of 0.1 mg/kg.min during 30 min) at 24 h after moderate trauma were studied using different anesthetics (isoflurane, chloralhydrate, pentobarbital). […]

Data set [3] relates to Sprague-Dawley rats. Description: Continuous infusion of 0.1 mg/kg.min in the rat CHI model. The data set is classed as in vivo.
Source text: as §1
The significant effect of compound 2 on MABP is much less pronounced when the compound is given at a continuous infusion of 0.1 mg/kg.min. […]

Data set [4] concerns Sprague-Dawley rats. Description: Closed Head Injury (CHI) model, screening procedure (severe head injury). The data set is classed as in vivo, rat.
Source text: as §1

A further data set relates to traumatized rats. The experiment in a line: Repeated application on elevated ICP in traumatized rats. The data set is classed as in vivo, rat. As to conditions: mannitol i.v. 0.125 g/kg/min, same time windows; FIG. 3. Here is the method:
Compound 1 was given 2 times with intermittent periods of 20 min at a i.v. dose of 1 mg/kg/min during 10 min, starting a first time 20 min after induction of severe head injury.
Mannitol was given i.v. in the same time windows as Compound 1 at a dose of 0.125 g/kg/min. The control animals received the solvent (containing 10% HP-β-CD, pH 4) only.
This effect is amplified after termination of each, infusion period.

Setting [5] is: chloralhydrate 400 mg/kg i.p. anesthesia.
The mark [6] stands for this setting: pentobarbital 60 mg/kg i.p. anesthesia.

Bounds are passed on as bounds.

In turn, `Cc1nc2ccccn2c(=O)c1CCN1CCC(C2(C)c3ccccc3CCn3c2nc2ccccc23)CC1` (stereo not drawn) (hydrate or solvate) [Compound 6] displayed a melting point of 133.9 °C.
Take `Cc1nc2n(C)c3ccccc3n2c(=O)c1CCN1CCC(C2c3ccccc3CCn3c2nc2ccccc23)CC1Cc1ccccc1` (racemic) [Racemate (comp. 1 and comp. 2), pyrimido[1,2-α]benzimidazol-4(10H)-one, 3-[2-[4-(11,12-dihydro-6H-benzimidazo[2,1-b][3]benzazepin-6-yl)-2-(phenylmethyl)-1-piperidinyl]ethyl]-2,10-dimethyl (E)-2-butenedioate (2:3) hydrate (1:1)]: the “effect on ICP, MABP and CPP” value in the data set on non-traumatised rats is recorded as “comparable with those obtained in the traumatized animals”. Also, in the data set on rat brain, the “effect on saturation of brain haemoglobin with oxygen (HbSat)” value is reported as “not affected” and the “effect on total brain haemoglobin concentration [HbTot]” value is listed as “do not have a significant effect”. In the data set on Sprague-Dawley rats [1], the “CPP (%)” value turned out to be 7.5%, the “ETCO2 (%)” value turned out to be 2.4%, the “Heart rate(%)” value is 5.6% and the “ICP (%)” value is given as −19.1%. In the data set with Sprague-Dawley rats [1], the “MABP (%)” value was determined as 0.6% and the “Resp. rate(%)” value was determined as 9.6%.
`Cc1nc2n(C)c3ccccc3n2c(=O)c1CCN1CCC(C2c3ccccc3CCn3c2nc2ccccc23)CC1Cc1ccccc1` (single isomer, unassigned) [Compound 2, (A)[(2α,4β)(A)] 3-[2-(4-(11,12-dihydro-6H-benzimidazo [2,1-b][3]benzazepin-6-yl)-2-(phenylmethyl)-1-piperidinyl]ethyl]-2,10-dimethyl-pyrimido[1,2-a]benzimidazol-4(10H)-one]: the “effect on ICP, MABP and CPP” value in the data set on non-traumatised rats is reported as “comparable with those obtained in the traumatized animals”. Further, in the data set with rat brain, the “effect on saturation of brain haemoglobin with oxygen (HbSat)” value was “small but statistically significant reduction” and the “effect on total brain haemoglobin concentration [HbTot]” value is reported as “do not have a significant effect”. Besides, in the data set on Sprague-Dawley rats [2] (setting [5]), the “ICP decreases to % of initial value” was 75 % of initial value and the “MABP increases to % of initial value” was 110 % of initial value. Further, in the data set with Sprague-Dawley rats [2] (setting [6]), the “ICP decreases to % of initial value” is listed as 64 % of initial value and the “MABP increase up to % of initial value at the end of the infusion” value was 141 % of initial value. For the same compound, in the data set with Sprague-Dawley rats [1], the “CPP (%)” value was determined as 24.2%, the “ETCO2 (%)” value is recorded as −4.4%, the “Heart rate(%)” value is given as −9.6% and the “ICP (%)” value is reported as −15.3%. Besides, in the data set with Sprague-Dawley rats [1], the “MABP (%)” value is given as 18.8% and the “Resp. rate(%)” value is listed as 6.6%. In the data set on Sprague-Dawley rats [3], the “maximal reduction of ICP versus infusion preceded by loading dose of 5 mg/kg over 10 min” value is “comparable” and the “time required to obtain maximal reduction of ICP (median)” value came out at 30 min. For the same compound, the “increases in MABP observed” value in the data set with Sprague-Dawley rats [3] (larger increases not observed) is no more than 20%. Further, the “median MABP increase at the end of the infusion” value with Sprague-Dawley rats [3] (n=6) was determined as 9%.
Compound `Cc1nc2sccn2c(=O)c1CCN1CCC(=C2c3ccccc3CCn3c2nc2ccccc23)CC1` [Compound 5, 6-[2-[4-(11,12-dihydro-6H-benzimidazo [2,1-b][3]benzazepin-6-ylidene)-1-piperidinyl]ethyl]-7-methyl-5H-thiazolo [3,2-a]pyrimidin-5-one] yielded a melting point of 224.9 °C.
The compound `Cc1nc2sccn2c(=O)c1CCN1CCC(C2c3ccccc3C(c3ccccc3)Cn3c2nc2ccccc23)CC1Cc1ccccc1` (stereo not drawn) [Compound 7] came in with a melting point of 213.2 °C.
In the case of `Cc1nc2sccn2c(=O)c1CCN1CCC(=C2c3ccccc3C=Cn3c2nc2ccccc23)CC1` [Compound 8, 6-[2-[4-(6H-benzimidazo[2,1-b][3]benzazepin-6-ylidene)-1-piperidinyl]ethyl]-7-methyl-5H-thiazolo[3,2-a]pyrimidin-5-one], the melting point was determined as 178.8 °C.
On to `OC[C@@H](O)[C@@H](O)[C@H](O)[C@H](O)CO` [Mannitol], for which the “mean reduction of ICP” value in the data set on Sprague-Dawley rats [4] (i.v. mannitol 3 g over 45 min) is “about 20%”. Moreover, in the data set on Sprague-Dawley rats [4] (severe CHI rats, mannitol infusion of 67 mg/kg/min for 45 min, 5 separate tests), the “Decision (based upon sequential statistical evaluation)” value was “active”. Besides, the “Delta %: average change of the relative ICP from baseline over the treatment period” value in the data set on Sprague-Dawley rats [4] (severe CHI rats, mannitol infusion of 67 mg/kg/min for 45 min, 5 separate tests, listed as Mannitol^1, 67 mg/kg) is given as −21.7%; with Sprague-Dawley rats [4] (severe CHI rats, mannitol infusion of 67 mg/kg/min for 45 min, 5 separate tests, listed as Mannitol^2, 67 mg/kg) it was −22.1%; with Sprague-Dawley rats [4] (severe CHI rats, mannitol infusion of 67 mg/kg/min for 45 min, 5 separate tests, listed as Mannitol^3, 67 mg/kg) it was −13.0%; with Sprague-Dawley rats [4] (severe CHI rats, mannitol infusion of 67 mg/kg/min for 45 min, 5 separate tests, listed as Mannitol^4, 67 mg/kg) it was −19.3%; with Sprague-Dawley rats [4] (severe CHI rats, mannitol infusion of 67 mg/kg/min for 45 min, 5 separate tests, listed as Mannitol^5, 67 mg/kg) it was −19.9%. Moreover, in the data set on traumatized rats, the “effect on ICP during infusion” value was “lowering of ICP”. The “effect on blood pressure” value in the data set with traumatized rats is on record as “increase in blood pressure during each infusion followed by a decrease in blood pressure after termination of each treatment”.

Values taken from patent US7476662B2, “Substituted tetracyclic imidazole derivatives, processes for their preparation, pharmaceutical compositions comprising them and their use as a medicine” (Janssen Pharmaceutica N.V., priority 2001, dated 2009).
